Measurements from patent US9695178B2, “6-(2-pyridyl)-7,8-dihydro-5H-pyrido[4,3-D]pyrimidine analogs as hedgehog pathway signaling inhibitors and therapeutic applications thereof” (Suzhou Yunxuan Yiyao Keji Youxian Gongsi, priority 2013, dated 2017).

Biological target: Smo (Homo sapiens, UniProt Q99835)
Experiment: Bodipy-Cyclopamine Binding Assay (confirmation assay), Hek293-SMO cells
Details: not given

Smo, sequence (Q99835 28-787): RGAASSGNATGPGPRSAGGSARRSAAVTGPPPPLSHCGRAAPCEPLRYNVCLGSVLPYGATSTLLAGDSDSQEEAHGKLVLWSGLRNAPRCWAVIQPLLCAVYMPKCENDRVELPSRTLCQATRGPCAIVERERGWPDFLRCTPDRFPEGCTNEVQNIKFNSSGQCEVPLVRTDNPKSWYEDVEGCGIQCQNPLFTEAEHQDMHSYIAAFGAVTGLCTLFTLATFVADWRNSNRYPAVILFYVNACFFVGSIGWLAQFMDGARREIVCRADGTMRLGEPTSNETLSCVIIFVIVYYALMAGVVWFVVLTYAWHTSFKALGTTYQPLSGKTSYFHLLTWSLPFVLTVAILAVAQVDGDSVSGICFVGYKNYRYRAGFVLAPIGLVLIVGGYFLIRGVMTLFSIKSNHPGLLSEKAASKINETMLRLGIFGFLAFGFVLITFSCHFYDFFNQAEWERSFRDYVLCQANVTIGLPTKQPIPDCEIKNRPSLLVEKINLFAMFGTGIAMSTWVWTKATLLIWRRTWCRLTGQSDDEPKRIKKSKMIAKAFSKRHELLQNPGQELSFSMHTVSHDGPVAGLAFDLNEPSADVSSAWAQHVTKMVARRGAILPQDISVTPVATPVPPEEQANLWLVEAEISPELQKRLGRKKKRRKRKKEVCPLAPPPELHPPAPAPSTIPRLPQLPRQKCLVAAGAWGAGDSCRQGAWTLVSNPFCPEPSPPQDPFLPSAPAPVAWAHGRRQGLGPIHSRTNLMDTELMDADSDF

| IC50 [nM] | Structure (SMILES) |
| --- | --- |
| 253 | Cc1cnc(-c2cc(N3CCc4nc(N5CC(C)NC(C)C5)ncc4C3=O)ncc2Cl)c(C)c1 (stereo not shown) [Compound A-101, 6-(5′-chloro-3,5-dimethyl-2,4′-bipyridin-2′-yl)-2-(3,5-dimethyl-piperazin-1-yl)-7,8-dihydro-pyrido[4,3-d]pyrimidin-5(6H)-one] |
| 408 | CCOC(=O)Nc1ncc2c(n1)CCN(c1cc(-c3ncc(C)cc3C)c(Cl)cn1)C2 [Compound A-90, ethyl 6-(5′-chloro-3,5-dimethyl-2,4′-bipyridin-2′-yl)-5,6,7,8-tetrahydropyrido[4,3-d]pyrimidin-2-ylcarbamate] |
| 163 | COC1CCN(c2ncc3c(n2)CCN(c2cc(-c4ncc(C)cc4C)c(Cl)cn2)C3)CC1 [Compound A-68, 6-(5′-chloro-3,5-dimethyl-2,4′-bipyridin-2′-yl)-2-(4-methoxy-piperidin-1-yl)-5,6,7,8-tetrahydro-pyrido-[4,3-d]pyrim-idine] |
| 87.6 | CSc1ncc2c(n1)CCN(c1cc(-c3ncc(C)cc3C)c(Cl)cn1)C2 [Compound A-63, 6-(5′-chloro-3,5-dimethyl-2,4′-bipyridin-2′-yl)-2-(methylthio)-5,6,7,8-tetrahydro-pyrido-[4,3-d]pyrimidine] |
| 211 | Cc1cnc(-c2cc(N3CC(C)(C)c4nc(N5CCC(O)CC5)ncc4C3=O)ncc2Cl)c(C)c1 [Compound A-83, 6-(5′-chloro-3,5-dimethyl-2,4′-bipyridin-2′-yl)-2-(4-hydroxy-piperidin-1-yl)-8,8-dimethyl-7,8-dihydro-pyrido[4,3-d] pyrimidin-5(6H)-one] |
| 125 | Cc1cnc(-c2cc(N3CC(C)c4nc(N5CCC(O)CC5)ncc4C3=O)ncc2Cl)c(C)c1 (stereo not shown) [Compound A-78, 6-(5′-chloro-3,5-dimethyl-2,4′-bipyridin-2′-yl)-2-(4-hydroxy-piperidin-1-yl)-8-methyl-7,8-dihydro-pyrido[4,3-d]pyrimidin-5(6H)-one] |

The remaining lines, values behind:

| Structure (SMILES) | IC50 [nM] |
| --- | --- |
| Cc1cnc(-c2cc(N3CCn4cc(C(=O)N(C)CCO)nc4C3)ncc2Cl)c(C)c1 [Compound A-8, 7-(5′-chloro-3,5-dimethyl-2,4′-bipyridin-2′-yl)-N-(2-hydroxyethyl)-N-methyl-5,6,7,8-tetrahydro-imidazo-[1,2-a]pyrazine-2-carboxamide] | 2010 |
| Cc1cnc(-c2cc(N3CCn4cc(C(=O)OC(C)C)nc4C3)ncc2Cl)c(C)c1 [Compound A-15, isopropyl 7-(5′-chloro-3,5-dimethyl-2,4′-bipyridin-2′-yl)-5,6,7,8-tetrahydro-imidazo-[1,2-a]pyrazine-2-carboxylate] | 589 |
| Cc1cnc(-c2cc(N3CCc4nc(-n5cccn5)ncc4C3)ncc2Cl)c(C)c1 [Compound A-59, 6-(5′-chloro-3,5-dimethyl-2,4′-bipyridin-2′-yl)-2-(1H-pyrazol-1-yl)-5,6,7,8-tetrahydro-pyrido-[4,3-d]pyrim-idine] | 48.8 |
| CCOc1nc2c(s1)CN(c1cc(-c3ncc(C)cc3C)c(Cl)cn1)CC2 [Compound A46, 5-(5′-chloro-3,5-dimethyl-2,4′-bipyridin-2′-yl)-2-ethoxy-4,5,6,7-tetrahydro-thiazolo-[5,4-c]pyridine] | 158 |
| Cc1cnc(-c2cc(N3CCc4nc(NC(=O)CCN(C)C)sc4C3)ncc2Cl)c(C)c1 [Compound A-41, N-(5-(5′-chloro-3,5-dimethyl-2,4′-bipyridin-2′-yl)-4,5,6,7-tetrahydro-thiazolo-[5,4-c]pyridin-2-yl)-3-(dimethyl-amino)-propanamide] | 173 |
| Cc1cnc(-c2cc(N3CCc4nc(NC(=O)CCN5CCOCC5)sc4C3)ncc2Cl)c(C)c1 [Compound A-39, N-(5-(5′-chloro-3,5-dimethyl-2,4′-bipyridin-2′-yl)-4,5,6,7-tetrahydro-thiazolo-[5,4-c]pyridin-2-yl)-3-morpholino-propan-amide] | 134 |

Same assay, conditions: Smo IC50 (nM), confirmation assay; competition with 100 nM bodipy-cyclopamine, Hek293-SMO cells

| IC50 [nM] | Structure (SMILES) |
| --- | --- |
| 442 | Cc1cnc(-c2cc(N3CCn4cc(C(=O)OCC5CC5)nc4C3)ncc2Cl)c(C)c1 [Compound A16, cyclopro-pylmeth-yl 7-(5′-chloro-3,5-dimethyl-2,4′-bipyridin-2′-yl)-5,6,7,8-tetrahydro-imidazo-[1,2-a]pyrazine-2-carboxylate] |
